Measured values: PubChem BioAssay (NCI)
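These data come from cells grown in 96-well plates and exposed to compound for 48 hours at five concentrations. The concentration for full growth arrest is given as TGI.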

Columns and labels:
Assay in all cases: NCI-60 cell line screen, 48 h
[1] = test system: COLO 205 colon
[2] = test system: HCT-15 colon
[3] = test system: IGROV1 ovarian
[4] = test system: LOX IMVI melanoma
[5] = test system: NCI-H522 lung
[6] = test system: SK-MEL-2 melanoma
[7] = test system: MDA-N
[8] = test system: NCI/ADR-RES ovarian
[9] = test system: T-47D breast
[10] = test system: TK-10 renal

Row | SMILES | TGI [1] [µM] | TGI [2] [µM] | TGI [3] [µM] | TGI [4] [µM] | TGI [5] [µM] | TGI [6] [µM] | TGI [7] [µM] | TGI [8] [µM] | TGI [9] [µM] | TGI [10] [µM]
1 | COc1cc2c(c(OC)c1OC)-c1ccc(SC)c(=O)cc1[C@@H](NCc1ccc([N+](=O)[O-])cc1)CC2 | 0.0145 | 0.0324 | > 100 | > 100 | 0.0119 | 19 | – | – | – | –
2 | Cc1cc(S(=O)(=O)/N=C(/NN)Nc2ccc(Cl)cc2)c(S)cc1Cl | 33 | 53 | 39.7 | 30.5 | 42.9 | 76.9 | 22.5 | 23.4 | 14.8 | 65.3
3 | Cc1ccc(S(=O)(=O)NC(=O)C2=C3SCCN3C(=O)N(S(=O)(=O)c3ccc(C)cc3)C2c2ccccc2)cc1 (configuration not stated) | 43.6 | > 100 | > 100 | > 100 | 46.7 | > 100 | – | > 100 | > 100 | > 100
4 | CCN(CC)C(=O)Cn1c2c(c3ccccc31)CCCC2 | > 100 | > 100 | > 100 | > 100 | – | > 100 | > 100 | > 100 | – | > 100
5 | Cc1cc(-c2nc3cccc(O)c3s2)ccc1N | 58.1 | > 100 | > 100 | > 100 | – | > 100 | > 100 | 55.9 | > 100 | > 100
6 | Oc1ccc(Oc2cc3c(cc2Oc2ccc(O)cc2)-c2nc-3nc3[nH]c(nc4nc(nc5[nH]c(n2)c2cc(Oc6ccc(O)cc6)c(Oc6ccc(O)cc6)cc52)-c2cc(Oc5ccc(O)cc5)c(Oc5ccc(O)cc5)cc2-4)c2cc(Oc4ccc(O)cc4)c(Oc4ccc(O)cc4)cc32)cc1 | > 100 | > 100 | > 100 | > 100 | > 100 | – | > 100 | > 100 | > 100 | > 100
7 | CCOC(=O)c1cc(Br)c(-c2onc(C)c2Br)[nH]1 | > 100 | > 100 | > 100 | > 100 | – | > 100 | > 100 | > 100 | > 100 | –
8 | Cc1c2cccc-2ccc2c3ccccc3n(C(=O)c3ccc(Cl)cc3)c12 | > 100 | > 100 | > 100 | > 100 | > 100 | > 100 | – | > 100 | – | > 100
9 | O=C(O)c1ccccc1C1c2ccccc2Oc2ccccc21 | – | > 100 | > 100 | > 100 | > 100 | 86.5 | > 100 | > 100 | > 100 | > 100
10 | Cc1c([C@H](C)[C@@H]2NC[C@@H](C)C[C@H]2O)ccc2c1C[C@H]1[C@H]2CC=C2C[C@@H](O)CC[C@@]21C | 29.4 | 57 | 43.9 | 27 | 36.6 | – | 31 | > 100 | 53.2 | 67.3
11 | O=C(c1ccc(Cl)cc1)N1CCN=C1c1cc2ccccc2c2ccccc12 | 29.5 | 31.3 | 29.2 | 36.1 | – | 31.4 | 31.9 | 33.3 | 54.4 | 29.2
12 | CCOC(=O)C1=C(O)c2ccc(C)cc2C(=O)C1=O | > 100 | > 100 | > 100 | > 100 | > 100 | > 100 | – | – | – | > 100
13 | COc1nc(C#CC2CCCCC2)nc(OC)n1 | 53.5 | 5.97 | 14 | 8.69 | 6.33 | 13.1 | 25.2 | 4.59 | > 100 | –
14 | CSc1cnc2ccccc2c1Sc1c[nH]c2ccccc2c1=O | 22.7 | > 80.8 | 43.1 | 67.2 | 11 | 34.6 | – | – | – | 91.4
15 | O=C(N=Nc1ccccc1Cl)NNc1ccccc1Cl | – | > 100 | 43.2 | 44.8 | 52.7 | 67.4 | > 100 | – | > 100 | > 100
16 | CCSC1=CC2(O)N(CCc3ccc(OC)c(OC)c3)C(=O)CC2(C(=O)OC)CC1=O (configuration not stated) | > 100 | 72.7 | 33.6 | 37.3 | – | 38.9 | > 100 | > 100 | 48.5 | 37.5
17 | CCOc1cc2c(cc1O)C(O)C[C@@H]1[C@@H]2CC[C@]2(C)[C@@H](O)CC[C@@H]12 (some centres not stated) | 60.8 | > 100 | > 100 | > 100 | 0.95 | > 100 | 0.326 | 4.04 | – | > 100
18 | CCN(CC)CC1CCCCN1CC(=O)N1CC(C)C(=O)Nc2ccccc21 (configuration not stated) | > 100 | > 100 | > 100 | > 100 | – | – | – | – | – | –
19 | CC1(C)CC[C@]2(C(=O)O)CC[C@]3(C)[C@H](C(=O)C=C4[C@@]5(C)C=C(C#N)C(=O)C(C)(C)[C@@H]5CC[C@]43C)[C@@H]2C1 | 1.49 | 1.7 | 7.15 | 1.1 | 5.48 | 3.88 | – | 4.68 | 4.34 | 2.02
20 | Clc1cc(Cl)ncn1 | > 100 | > 100 | > 100 | > 100 | > 100 | – | > 100 | > 100 | > 100 | > 100
21 | CCCCCCCCOc1ccc(/C=C/C2=[N+](CCO)CCO2)cc1 | 5.69 | 25 | 13.8 | – | 6.25 | 7.26 | 12.3 | 29.4 | 13.2 | 17.3
22 | O=[Se](O)O | > 60.3 | > 100 | 2.43 | > 100 | 39 | > 39.4 | – | > 54.9 | > 62.9 | > 100
23 | C=C1CC(C)(c2cccc(Nc3nc4ccccc4c4occc34)c2)OC1=O (configuration not stated) | 17.6 | 17.4 | – | – | – | – | 18.3 | 26.8 | 20.5 | 9.99
24 | Cn1c(=O)sc2cc(C(=S)N3CCCCC3)ccc21 | > 100 | > 100 | > 100 | > 100 | – | > 100 | > 100 | > 100 | – | > 100
